Reference: paper PMC7206119, “RIP1 inhibition blocks inflammatory diseases but not tumor growth or metastases” (Cell Death and Differentiation, 2019)

How the values were obtained:
Assay in all cases: biochemical
Design in all cases: DiscoverX kinase panel, active-site competition binding (KINOMEscan type), percent of control at one concentration
Conditions in all cases: competition binding, percent of control
ADCK3 = biological target: T1, ADCK3 (Homo sapiens, UniProt Q8NI60)
T1 construct: gene COQ8A

BLK = BLK (Homo sapiens, UniProt P51451)
BTK = BTK (Homo sapiens, UniProt Q06187)
EGFR(L858R) = EGFR(L858R) (Homo sapiens, UniProt P00533, L858R)
ERN1 = ERN1 (Homo sapiens, UniProt O75460)
GRK3 = GRK3 (Homo sapiens, UniProt P35626)
ICK = biological target: T2, ICK (Homo sapiens, UniProt Q9UPZ9)
T2 construct: gene CILK1

JNK2 = biological target: T3, JNK2 (Homo sapiens, UniProt P45984)
T3 construct: gene MAPK9

KIT(V559D,V654A) = KIT(V559D,V654A) (Homo sapiens, UniProt P10721, V559D/V654A)
LZK = biological target: T4, LZK (Homo sapiens, UniProt O43283)
T4 construct: gene MAP3K13

MAP3K4 = MAP3K4 (Homo sapiens, UniProt Q9Y6R4)
MARK1 = MARK1 (Homo sapiens, UniProt Q9P0L2)
MUSK = MUSK (Homo sapiens, UniProt O15146)
PIK3C2G = PIK3C2G (Homo sapiens, UniProt O75747)
RIOK1 = RIOK1 (Homo sapiens, UniProt Q9BRS2)
SNARK = biological target: T5, SNARK (Homo sapiens, UniProt Q9H093)
T5 construct: gene NUAK2

TAOK3 = TAOK3 (Homo sapiens, UniProt Q9H2K8)
TGFBR1 = TGFBR1 (Homo sapiens, UniProt P36897)
TIE1 = TIE1 (Homo sapiens, UniProt P35590)
TNK1 = TNK1 (Homo sapiens, UniProt Q13470)
TNK2 = TNK2 (Homo sapiens, UniProt Q07912)

ERN1, sequence (O75460 whole entry): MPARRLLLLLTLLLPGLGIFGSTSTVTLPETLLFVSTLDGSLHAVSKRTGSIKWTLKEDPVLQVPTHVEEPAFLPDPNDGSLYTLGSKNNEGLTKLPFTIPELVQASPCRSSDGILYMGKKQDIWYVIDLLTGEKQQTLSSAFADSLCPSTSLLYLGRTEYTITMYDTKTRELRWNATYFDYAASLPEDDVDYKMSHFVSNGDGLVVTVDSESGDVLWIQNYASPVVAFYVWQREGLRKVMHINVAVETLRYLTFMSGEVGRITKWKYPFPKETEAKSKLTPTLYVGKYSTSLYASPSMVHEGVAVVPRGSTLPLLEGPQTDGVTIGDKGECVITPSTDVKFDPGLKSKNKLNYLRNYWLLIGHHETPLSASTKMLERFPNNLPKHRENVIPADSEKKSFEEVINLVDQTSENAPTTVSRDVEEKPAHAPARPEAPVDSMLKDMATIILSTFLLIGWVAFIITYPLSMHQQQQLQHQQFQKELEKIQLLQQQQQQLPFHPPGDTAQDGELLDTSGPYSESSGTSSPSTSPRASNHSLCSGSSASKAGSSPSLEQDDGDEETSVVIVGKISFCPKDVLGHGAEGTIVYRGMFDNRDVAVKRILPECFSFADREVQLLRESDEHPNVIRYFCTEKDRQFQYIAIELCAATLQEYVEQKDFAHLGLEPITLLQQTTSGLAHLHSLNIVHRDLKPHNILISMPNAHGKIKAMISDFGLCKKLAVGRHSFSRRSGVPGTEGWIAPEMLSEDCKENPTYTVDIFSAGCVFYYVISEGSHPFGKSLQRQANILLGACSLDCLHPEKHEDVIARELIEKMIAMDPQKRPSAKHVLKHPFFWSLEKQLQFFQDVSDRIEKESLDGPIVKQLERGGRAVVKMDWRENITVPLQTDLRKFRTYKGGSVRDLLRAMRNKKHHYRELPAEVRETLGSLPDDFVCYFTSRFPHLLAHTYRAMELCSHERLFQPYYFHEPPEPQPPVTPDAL
MAP3K4, sequence (Q9Y6R4 whole entry): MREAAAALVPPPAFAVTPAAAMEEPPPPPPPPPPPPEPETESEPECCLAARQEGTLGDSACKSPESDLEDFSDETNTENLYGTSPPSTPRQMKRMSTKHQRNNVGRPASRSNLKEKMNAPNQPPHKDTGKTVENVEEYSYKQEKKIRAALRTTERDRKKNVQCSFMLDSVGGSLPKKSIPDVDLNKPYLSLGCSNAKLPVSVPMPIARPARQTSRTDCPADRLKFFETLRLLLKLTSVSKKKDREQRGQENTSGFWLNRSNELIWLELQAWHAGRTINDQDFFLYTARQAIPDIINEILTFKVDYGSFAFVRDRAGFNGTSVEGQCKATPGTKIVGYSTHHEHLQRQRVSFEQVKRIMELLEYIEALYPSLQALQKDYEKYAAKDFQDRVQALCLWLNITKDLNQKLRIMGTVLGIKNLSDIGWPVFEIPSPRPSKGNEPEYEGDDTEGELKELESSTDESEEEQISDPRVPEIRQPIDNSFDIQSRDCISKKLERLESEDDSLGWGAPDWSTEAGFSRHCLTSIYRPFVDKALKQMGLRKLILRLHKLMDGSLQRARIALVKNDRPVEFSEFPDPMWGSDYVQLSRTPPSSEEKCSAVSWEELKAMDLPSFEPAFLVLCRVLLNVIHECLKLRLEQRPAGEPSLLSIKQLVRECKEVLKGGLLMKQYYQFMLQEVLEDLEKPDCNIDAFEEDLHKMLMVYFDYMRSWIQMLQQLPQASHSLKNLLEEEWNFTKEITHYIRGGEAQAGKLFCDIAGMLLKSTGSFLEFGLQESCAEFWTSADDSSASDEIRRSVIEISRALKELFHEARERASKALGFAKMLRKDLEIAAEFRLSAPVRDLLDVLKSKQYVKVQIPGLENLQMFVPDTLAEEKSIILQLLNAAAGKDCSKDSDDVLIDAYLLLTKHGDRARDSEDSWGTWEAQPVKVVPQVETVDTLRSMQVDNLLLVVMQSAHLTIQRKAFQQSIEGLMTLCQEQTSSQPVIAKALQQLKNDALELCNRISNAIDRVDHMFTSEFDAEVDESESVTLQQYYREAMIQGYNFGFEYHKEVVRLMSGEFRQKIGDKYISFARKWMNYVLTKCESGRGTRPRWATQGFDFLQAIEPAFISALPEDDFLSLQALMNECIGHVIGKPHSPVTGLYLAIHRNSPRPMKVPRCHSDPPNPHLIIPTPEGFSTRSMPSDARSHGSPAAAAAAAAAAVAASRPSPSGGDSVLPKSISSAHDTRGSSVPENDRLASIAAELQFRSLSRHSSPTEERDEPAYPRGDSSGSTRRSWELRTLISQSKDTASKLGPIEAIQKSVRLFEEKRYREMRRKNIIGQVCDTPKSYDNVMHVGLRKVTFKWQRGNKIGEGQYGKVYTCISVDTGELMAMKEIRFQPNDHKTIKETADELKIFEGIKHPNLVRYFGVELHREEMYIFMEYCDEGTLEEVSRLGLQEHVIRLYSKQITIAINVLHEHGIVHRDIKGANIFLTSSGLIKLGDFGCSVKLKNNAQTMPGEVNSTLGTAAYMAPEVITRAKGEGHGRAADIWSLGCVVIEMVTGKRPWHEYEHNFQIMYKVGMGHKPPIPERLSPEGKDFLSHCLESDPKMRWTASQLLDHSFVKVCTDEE
TNK1, sequence (Q13470 whole entry): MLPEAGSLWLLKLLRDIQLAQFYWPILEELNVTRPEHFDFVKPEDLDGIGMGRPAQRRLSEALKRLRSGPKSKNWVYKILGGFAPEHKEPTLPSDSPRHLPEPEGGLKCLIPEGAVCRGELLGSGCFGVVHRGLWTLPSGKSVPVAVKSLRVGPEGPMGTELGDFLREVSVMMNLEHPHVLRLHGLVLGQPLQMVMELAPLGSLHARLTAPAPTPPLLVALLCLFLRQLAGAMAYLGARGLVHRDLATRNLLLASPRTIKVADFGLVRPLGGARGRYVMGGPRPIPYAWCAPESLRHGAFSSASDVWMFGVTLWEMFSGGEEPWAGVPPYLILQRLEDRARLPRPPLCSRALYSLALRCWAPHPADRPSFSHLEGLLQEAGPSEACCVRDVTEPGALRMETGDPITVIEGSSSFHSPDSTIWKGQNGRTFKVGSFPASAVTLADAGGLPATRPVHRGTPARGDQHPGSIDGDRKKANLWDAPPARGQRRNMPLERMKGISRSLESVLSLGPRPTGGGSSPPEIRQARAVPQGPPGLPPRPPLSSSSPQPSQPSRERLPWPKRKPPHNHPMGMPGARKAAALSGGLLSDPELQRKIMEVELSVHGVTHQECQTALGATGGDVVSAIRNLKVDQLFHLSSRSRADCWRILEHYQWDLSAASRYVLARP
RIOK1, sequence (Q9BRS2 whole entry): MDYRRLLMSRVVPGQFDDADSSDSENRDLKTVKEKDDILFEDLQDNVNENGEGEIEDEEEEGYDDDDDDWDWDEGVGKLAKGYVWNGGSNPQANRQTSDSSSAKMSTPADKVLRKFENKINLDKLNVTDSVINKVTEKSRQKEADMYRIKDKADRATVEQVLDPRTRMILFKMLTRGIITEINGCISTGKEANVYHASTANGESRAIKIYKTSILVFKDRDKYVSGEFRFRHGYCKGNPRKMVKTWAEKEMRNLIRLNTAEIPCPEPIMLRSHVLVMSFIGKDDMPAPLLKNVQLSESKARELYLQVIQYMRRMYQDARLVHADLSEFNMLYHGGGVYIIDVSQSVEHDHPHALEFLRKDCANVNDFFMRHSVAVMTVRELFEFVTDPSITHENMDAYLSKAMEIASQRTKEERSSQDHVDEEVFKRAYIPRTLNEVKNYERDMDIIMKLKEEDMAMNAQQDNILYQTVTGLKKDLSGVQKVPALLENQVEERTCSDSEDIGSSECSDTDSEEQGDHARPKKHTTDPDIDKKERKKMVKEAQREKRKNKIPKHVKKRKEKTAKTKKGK
MARK1, sequence (Q9P0L2 whole entry): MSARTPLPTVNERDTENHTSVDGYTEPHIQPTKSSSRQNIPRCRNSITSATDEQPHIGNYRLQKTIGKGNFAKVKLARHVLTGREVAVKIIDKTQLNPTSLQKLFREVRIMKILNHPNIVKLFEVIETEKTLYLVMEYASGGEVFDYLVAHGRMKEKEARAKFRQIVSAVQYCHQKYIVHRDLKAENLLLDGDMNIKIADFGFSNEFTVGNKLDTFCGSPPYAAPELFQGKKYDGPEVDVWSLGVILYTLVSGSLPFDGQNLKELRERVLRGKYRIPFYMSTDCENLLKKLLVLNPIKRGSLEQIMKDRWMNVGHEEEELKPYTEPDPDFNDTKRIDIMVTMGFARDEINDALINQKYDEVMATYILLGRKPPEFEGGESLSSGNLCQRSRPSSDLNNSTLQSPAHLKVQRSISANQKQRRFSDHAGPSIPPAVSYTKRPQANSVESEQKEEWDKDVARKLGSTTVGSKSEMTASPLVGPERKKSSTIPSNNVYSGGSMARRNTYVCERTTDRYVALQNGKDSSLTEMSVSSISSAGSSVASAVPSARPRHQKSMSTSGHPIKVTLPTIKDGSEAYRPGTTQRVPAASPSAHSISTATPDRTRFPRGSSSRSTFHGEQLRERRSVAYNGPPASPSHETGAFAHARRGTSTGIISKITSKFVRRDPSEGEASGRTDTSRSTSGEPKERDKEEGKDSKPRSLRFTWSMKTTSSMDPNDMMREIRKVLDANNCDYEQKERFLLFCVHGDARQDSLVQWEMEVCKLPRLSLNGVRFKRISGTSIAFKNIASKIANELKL
T3 sequence (P45984 whole entry): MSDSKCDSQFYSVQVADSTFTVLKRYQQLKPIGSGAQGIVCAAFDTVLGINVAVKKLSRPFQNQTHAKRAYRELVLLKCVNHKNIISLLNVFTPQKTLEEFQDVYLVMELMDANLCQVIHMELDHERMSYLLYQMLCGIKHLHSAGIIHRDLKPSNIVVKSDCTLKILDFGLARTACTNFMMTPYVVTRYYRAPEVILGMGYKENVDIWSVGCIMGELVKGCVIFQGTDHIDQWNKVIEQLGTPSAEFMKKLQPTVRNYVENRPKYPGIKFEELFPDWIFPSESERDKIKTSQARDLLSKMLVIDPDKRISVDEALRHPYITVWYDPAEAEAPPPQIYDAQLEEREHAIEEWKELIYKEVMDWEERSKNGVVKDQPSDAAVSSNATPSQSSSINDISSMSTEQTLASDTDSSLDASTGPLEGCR

In the case of `COc1cc2c(cn1)N(C)C(=O)[C@@H](NC(=O)c1nc3n(n1)[C@H](c1ccccc1)CC3)CC2` [GNE684, (S)-N-((S)-7-methoxy-1-methyl-2-oxo-2,3,4,5-tetrahydro-1H-pyrido[3,4-b]azepin-3-yl)-5-phenyl-6,7-dihydro-5H-pyrrolo[1,2-b][1,2,4]triazole-2-carboxamide], the remaining binding at 10 µM (ADCK3) is reported as 98%, the remaining binding at 10 µM (BLK) is reported as 49% and the remaining binding at 10 µM (BTK) is reported as 100%. It also gave a remaining binding at 10 µM (EGFR(L858R)) of 100%, a remaining binding at 10 µM (ERN1) of 97% and a remaining binding at 10 µM (GRK3) of 100%. The remaining binding at 10 µM (ICK) was 93%, the remaining binding at 10 µM (JNK2) was 98% and the remaining binding at 10 µM (KIT(V559D,V654A)) was 100%. The remaining binding at 10 µM (LZK) was 98%, the remaining binding at 10 µM (MAP3K4) was 92% and the remaining binding at 10 µM (MARK1) was 69%. It also gave a remaining binding at 10 µM (MUSK) of 98%, a remaining binding at 10 µM (PIK3C2G) of 100% and a remaining binding at 10 µM (RIOK1) of 84%. For the same compound, the remaining binding at 10 µM (SNARK) was 100%, the remaining binding at 10 µM (TAOK3) was 60% and the remaining binding at 10 µM (TGFBR1) was 97%. For the same compound, the remaining binding at 10 µM (TIE1) was 88%, the remaining binding at 10 µM (TNK1) was 100% and the remaining binding at 10 µM (TNK2) was 100%.
